Several values for one entry are separate records, joined by “and”; a condition that tells them apart may be missing. Equal entries are not always repeated.
Experiments:
[1] = tested on: neutrophil elastase; test: Elastase activity and cell number in peripheral blood neutrophils after administration to rats; format: in vivo; conditions: rat, 8 mg/kg twice daily i.v. for three days; for Elastase Activity / Elastase Activity Rate/10^6 PMN: peripheral blood neutrophils; for Elastase Activity / Elastase Activity Rate/10^6 PMN / PMN / Total WBC: per animal, 8 mg/kg; for effect on elastase activity in circulating neutrophils (in words): vs vehicle
Procedure: (§1) Inhibitor A or B were each injected twice daily into the tail vein of a rat (8 mg/kg) over a period of three days. Inflammation was not induced in these rats. […] WBC=white blood cells; PMN=polymorphonuclear leukocytes; The elastase assay has been disclosed above.

[2] = tested on: peripheral blood neutrophils and lymphocytes; test: Peripheral blood cell distribution after administration to rats without inflammation; format: in vivo; conditions: rat, 8 mg/kg twice daily for three days; for Peripheral Blood Cell Distribution, Lymphocytes / Peripheral Blood Cell Distribution, Neutrophils / effect on number of neutrophils in peripheral circulation (in words): no inflammation; for Peripheral Blood Cell Distribution, Lymphocytes / Peripheral Blood Cell Distribution, Neutrophils: per animal, 8 mg/kg; for effect on number of neutrophils in peripheral circulation (in words): vs vehicle
Procedure: Compound A or Compound B were each administered twice daily for three days at a dose of 8 mg/kg. Inflammation was not induced in these rats. […] However, substitution of the aspirin moiety with a fluorine atom, as found in Compound B, prevents an increase in neutrophil cell number.

[3] = tested on: neutrophil diapedesis (peritonitis); test: Inhibition of neutrophil diapedesis after experimentally induced (starch) peritonitis; format: in vivo, rat; conditions: for Abdominal Lavage Cell Distribution, Lymphocytes / Abdominal Lavage Cell Distribution, Macrophages Monocytes / Abdominal Lavage Cell Distribution, Neutrophils: 4 hours; for reduction of peritonitis induced neutrophil diapedesis: rat
Procedure: (§2) Each compound (A-D) was individually injected into the tail vein of a rat in a single dose (8 mg/kg). After injection, peritonitis was induced in the rat by an IP (intraperitoneal) injection of 1 ml of a 0.1% soluble starch solution. After 4 hours, the peritoneal cavity was lavaged with saline in order to determine the number and type of cells responding to peritonitis. Cell numbers were determined by a Coulter counter and cell type (e.g. lymphocytes, neutrophils, macrophages and monocytes) by standard Cytospin and Giemsa staining. Cell number and type was evaluated after IP injection of saline (negative control, no inflammation), starch (positive control, inflammation) or starch with IV injection of an inhibitor (experimental, inflammation). Inhibitors were dissolved in DMSO prior to administration.

[4] = tested on: rat; test: Overt toxicity in injected rats; format: in vivo; conditions: rat, 8 mg/kg twice daily i.v. for three days
Procedure: as §1, §2

[5] = Experiment 1, starch, 8 mg/kg i.v. single dose
[6] = Experiment 2, saline (no inflammation) + drug
[7] = Experiment 2, starch, 8 mg/kg i.v. single dose

`CC(=O)Oc1ccccc1C(=O)OCN1C(=O)c2ccccc2S1(=O)=O` [Drug A] was tested, and the “Elastase Activity” value [1] was 0.55 ΔOD/min/ml and 0.70 ΔOD/min/ml, the “Elastase Activity Rate/10^6 PMN” value [1] was 0.014 and 0.015 and the “entry into neutrophils in vivo (in words)” value [1] was “do not enter neutrophils in vivo”. For the same compound, the “inactivation of neutrophil intracellular proteinase (in words)” value [1] was “fails to inactivate neutrophil intracellular proteinase”, the PMN [1] was 41.4 × 10^6 and 45.7 × 10^6 and the “Total WBC” value [1] was 46.0 × 10^6 and 55.0 × 10^6. The “effect on elastase activity in circulating neutrophils (in words)” value [1] was “did not reduce elastase activity in circulating neutrophils”, the “morphology of circulating cells (in words)” value [2] was “most of the circulating cells are morphologically mature” and the “Peripheral Blood Cell Distribution, Lymphocytes” value [2] was 10% and 17%. For the same compound, the “Peripheral Blood Cell Distribution, Neutrophils” value [2] was 90% and 83%, the “effect on number of neutrophils in peripheral circulation (in words)” value [2] was “caused an increase in the number of neutrophils into the peripheral circulation” and the “Total Number of Cells Lavaged at 4 Hours, Lymphocytes” value (“Total Number … Lymphocytes” for short) [3, 5] was 7.0 × 10^6. The “Total Number of Cells Lavaged at 4 Hours, Macrophages Monocytes” value (“Total Number … Macrophages Monocytes” for short) [3, 5] was 7.6 × 10^6, the “Total Number of Cells Lavaged at 4 Hours, Neutrophils” value (shortened to “Total Number … Neutrophils”) [3, 5] was 11.0 × 10^6 and the “Total Number of Cells Lavaged at 4 Hours, Total Cells” value (from here on “Total Number … Total Cells”) [3, 5] was 25 × 10^6. For the same compound, the “Abdominal Lavage Cell Distribution, Lymphocytes” value [3, 5] was 28%, the “Abdominal Lavage Cell Distribution, Macrophages Monocytes” value [3, 5] was 38% and the “Abdominal Lavage Cell Distribution, Neutrophils” value [3, 5] was 44%. The “reduction of peritonitis induced neutrophil diapedesis” value ([3]; 8 mg/kg i.v. single dose) was “more than 50%” and the “overt signs of toxicity” value [4] was “no overt signs of toxicity”.
In the case of `O=C1c2ccccc2S(=O)(=O)N1CF` [Drug B], the “Elastase Activity” value [1] is reported as 0.125 ΔOD/min/ml and 0.05 ΔOD/min/ml, the “Elastase Activity Rate/10^6 PMN” value [1] is reported as 0.0154 and 0.0159 and the “entry into neutrophils in vivo (in words)” value [1] is reported as “do not enter neutrophils in vivo”. The “inactivation of neutrophil intracellular proteinase (in words)” value [1] was “fails to inactivate neutrophil intracellular proteinase”, the PMN [1] was 8.14 × 10^6 and 3.15 × 10^6 and the “Total WBC” value [1] was 22.0 × 10^6 and 15.0 × 10^6. For the same compound, the “effect on elastase activity in circulating neutrophils (in words)” value [1] was “did not reduce elastase activity in circulating neutrophils”, the “Peripheral Blood Cell Distribution, Lymphocytes” value [2] was 63% and 79% and the “Peripheral Blood Cell Distribution, Neutrophils” value [2] was 37% and 21%. The “effect on number of neutrophils in peripheral circulation (in words)” value [2] was “did not cause an increase in neutrophil number”, the “Total Number … Lymphocytes” value [3, 5] was 8.1 × 10^6 and the “Total Number … Macrophages Monocytes” value [3, 5] was 7.8 × 10^6. For the same compound, the “Total Number … Neutrophils” value [3, 5] was 10.1 × 10^6, the “Total Number … Total Cells” value [3, 5] was 26 × 10^6 and the “Abdominal Lavage Cell Distribution, Lymphocytes” value [3, 5] was 31%. The “Abdominal Lavage Cell Distribution, Macrophages Monocytes” value [3, 5] was 30%, the “Abdominal Lavage Cell Distribution, Neutrophils” value [3, 5] was 39% and the “Total Number … Lymphocytes” value [3, 6] was 2.6 × 10^6. For the same compound, the “Total Number … Macrophages Monocytes” value [3, 6] was 14.5 × 10^6, the “Total Number … Neutrophils” value [3, 6] was 4.8 × 10^6 and the “Total Number … Total Cells” value [3, 6] was 22 × 10^6. For the same compound, the “Abdominal Lavage Cell Distribution, Lymphocytes” value [3, 6] was 12%, the “Abdominal Lavage Cell Distribution, Macrophages Monocytes” value [3, 6] was 66% and the “Abdominal Lavage Cell Distribution, Neutrophils” value [3, 6] was 22%. For the same compound, the “Total Number … Lymphocytes” value [3, 7] was 9.9 × 10^6, the “Total Number … Macrophages Monocytes” value [3, 7] was 9.6 × 10^6 and the “Total Number … Neutrophils” value [3, 7] was 12.5 × 10^6. For the same compound, the “Total Number … Total Cells” value [3, 7] was 32 × 10^6, the “Abdominal Lavage Cell Distribution, Lymphocytes” value [3, 7] was 31% and the “Abdominal Lavage Cell Distribution, Macrophages Monocytes” value [3, 7] was 30%. For the same compound, the “Abdominal Lavage Cell Distribution, Neutrophils” value [3, 7] was 39%, the “reduction of peritonitis induced neutrophil diapedesis” value ([3]; 8 mg/kg i.v. single dose) was “more than 50%” and the “overt signs of toxicity” value [4] was “no overt signs of toxicity”.

— patent US5550139A, “Serine protease inhibitors” (The Wichita State University, priority 1994, dated 1996)
